Assays:
Type in all cases: biochemical
Settings in all cases: recombinant enzyme, 20° C., activity level classes
hALDH1a3 = molecular target: T1, hALDH1a3 (Homo sapiens, UniProt P47895); experiment: Aldh1a3 enzyme inhibition assay (resorufin fluorescence), human enzyme
T1 construct: made in house; host or cells: E. coli BL21-DE3
T1 sequence (P47895 1-512): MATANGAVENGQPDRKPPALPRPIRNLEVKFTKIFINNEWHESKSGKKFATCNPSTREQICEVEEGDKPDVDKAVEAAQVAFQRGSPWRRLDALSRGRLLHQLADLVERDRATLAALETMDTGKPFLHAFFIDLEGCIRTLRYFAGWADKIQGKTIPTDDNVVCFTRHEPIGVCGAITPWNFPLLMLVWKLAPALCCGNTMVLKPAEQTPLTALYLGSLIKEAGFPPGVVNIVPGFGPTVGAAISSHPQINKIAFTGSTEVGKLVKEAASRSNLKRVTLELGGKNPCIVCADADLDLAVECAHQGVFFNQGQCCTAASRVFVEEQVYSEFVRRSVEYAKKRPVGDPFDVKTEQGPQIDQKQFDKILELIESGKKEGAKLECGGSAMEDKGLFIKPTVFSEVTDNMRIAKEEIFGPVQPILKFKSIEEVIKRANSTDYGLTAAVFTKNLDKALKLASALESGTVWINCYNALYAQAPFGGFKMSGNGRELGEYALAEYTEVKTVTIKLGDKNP

mALDH1a3 = molecular target: T2, mALDH1a3 (Mus musculus, UniProt Q9JHW9); experiment: Aldh1a3 enzyme inhibition assay (resorufin fluorescence), mouse enzyme
T2 construct: made in house; host or cells: E. coli BL21-DE3
T2 sequence (Q9JHW9 1-512): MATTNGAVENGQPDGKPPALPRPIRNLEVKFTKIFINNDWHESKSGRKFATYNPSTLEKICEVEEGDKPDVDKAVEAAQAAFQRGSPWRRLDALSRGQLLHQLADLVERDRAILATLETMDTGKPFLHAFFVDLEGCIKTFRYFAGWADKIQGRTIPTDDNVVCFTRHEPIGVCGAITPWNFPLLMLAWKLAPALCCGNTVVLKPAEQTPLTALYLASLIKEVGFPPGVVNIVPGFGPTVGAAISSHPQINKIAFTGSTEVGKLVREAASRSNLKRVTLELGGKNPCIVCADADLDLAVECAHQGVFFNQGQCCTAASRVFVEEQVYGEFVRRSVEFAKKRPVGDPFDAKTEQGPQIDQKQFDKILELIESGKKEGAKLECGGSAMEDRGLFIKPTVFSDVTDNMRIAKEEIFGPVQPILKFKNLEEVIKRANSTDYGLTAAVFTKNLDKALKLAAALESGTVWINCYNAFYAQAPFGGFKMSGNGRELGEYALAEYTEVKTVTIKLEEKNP
From the text: Recombinant enzyme and inhibitor added immediately before assay. Reaction rate measured by resorufin fluorescence.

hALDH1a2 = molecular target: T3, hALDH1a2 (Homo sapiens, UniProt O94788); experiment: Aldh1a2 enzyme inhibition assay (resorufin fluorescence), human enzyme
T3 construct: made in house; host or cells: E. coli BL21-DE3
T3 sequence (O94788 1-518): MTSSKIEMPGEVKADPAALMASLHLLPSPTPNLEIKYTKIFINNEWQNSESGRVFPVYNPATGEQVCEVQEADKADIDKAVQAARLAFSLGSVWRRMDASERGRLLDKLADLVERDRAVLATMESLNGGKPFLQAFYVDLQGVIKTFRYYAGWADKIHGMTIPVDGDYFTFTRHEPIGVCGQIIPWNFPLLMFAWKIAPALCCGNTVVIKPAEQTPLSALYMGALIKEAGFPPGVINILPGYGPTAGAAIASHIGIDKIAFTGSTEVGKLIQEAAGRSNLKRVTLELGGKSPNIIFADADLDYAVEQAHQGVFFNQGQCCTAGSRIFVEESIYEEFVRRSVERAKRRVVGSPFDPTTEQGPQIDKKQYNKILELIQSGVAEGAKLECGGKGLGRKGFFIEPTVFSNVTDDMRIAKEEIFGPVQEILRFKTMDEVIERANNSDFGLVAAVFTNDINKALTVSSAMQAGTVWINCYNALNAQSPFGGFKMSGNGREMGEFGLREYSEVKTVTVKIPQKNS
From the text: (§1) Recombinant enzyme and inhibitor added immediately before assay. Reaction rate measured by resorufln fluorescence.

mALDH1a2 = molecular target: T4, mALDH1a2 (Mus musculus, UniProt Q62148); experiment: Aldh1a2 enzyme inhibition assay (resorufin fluorescence), mouse enzyme
T4 construct: made in house; host or cells: E. coli BL21-DE3
T4 sequence (Q62148 1-518): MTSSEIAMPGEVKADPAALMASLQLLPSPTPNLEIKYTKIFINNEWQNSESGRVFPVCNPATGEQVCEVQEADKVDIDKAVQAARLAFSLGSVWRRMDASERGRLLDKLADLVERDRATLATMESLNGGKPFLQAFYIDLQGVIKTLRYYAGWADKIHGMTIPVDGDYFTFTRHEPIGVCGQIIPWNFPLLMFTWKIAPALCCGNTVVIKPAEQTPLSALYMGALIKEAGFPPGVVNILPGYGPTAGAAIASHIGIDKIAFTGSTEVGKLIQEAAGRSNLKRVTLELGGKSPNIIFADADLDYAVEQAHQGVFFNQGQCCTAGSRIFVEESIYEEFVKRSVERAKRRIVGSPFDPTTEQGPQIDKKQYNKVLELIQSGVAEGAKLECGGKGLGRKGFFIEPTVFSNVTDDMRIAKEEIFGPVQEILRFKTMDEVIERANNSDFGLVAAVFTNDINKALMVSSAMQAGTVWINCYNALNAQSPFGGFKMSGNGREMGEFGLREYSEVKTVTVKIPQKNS
From the text: as §1

Row | SMILES | IC50 (hALDH1a3) | IC50 (mALDH1a3) | IC50 (hALDH1a2) | IC50 (mALDH1a2) | mAldh1a3 IC50 (mALDH1a3) | hAldh1a3 IC50 (hALDH1a3) | hAldh1a2 IC50 (hALDH1a2) | mAldh1a2 IC50 (mALDH1a2)
1 | Cc1cc(NC(=O)c2ccncc2-c2ccccc2)cc2c1NC(=O)CC2 [Compound 1, N-(8-methyl-2-oxo-1,2,3,4-tetrahydroquinolin-6-yl)-3-phenylisonicotinamide] | 1000 to 5000 nM | 1000 to 5000 nM | 100 to 250 nM | 100 to 250 nM | – | – | – | –
2 | Cc1cc(NC(=O)c2ccncc2-c2ccccc2F)cc2c1NC(=O)CC2 [Compound 2, 3-(2-fluorophenyl)-N-(8-methyl-2-oxo-1,2,3,4-tetrahydroquinolin-6-yl)isonicotinamide] | 1000 to 5000 nM | – | 100 to 250 nM | 250 to 1000 nM | No activity | – | – | –
3 | Cc1cc(NC(=O)c2ccncc2-c2cccc(F)c2)cc2c1NC(=O)CC2 [Compound 3, 3-(3-fluorophenyl)-N-(8-methyl-2-oxo-1,2,3,4-tetrahydroquinolin-6-yl)isonicotinamide] | 1000 to 5000 nM | – | 250 to 1000 nM | 250 to 1000 nM | No activity | – | – | –
4 | Cc1cc(NC(=O)c2scnc2-c2cccc(F)c2)cc2c1NC(=O)CC2 [Compound 4, 4-(3-fluorophenyl)-N-(8-methyl-2-oxo-1,2,3,4-tetrahydroquinolin-6-yl)thiazole-5-carboxamide] | 100 to 250 nM | 250 to 1000 nM | 250 to 1000 nM | 250 to 1000 nM | – | – | – | –
5 | O=C1CCc2cc(NC(=O)c3scnc3-c3cccc(F)c3)c(F)cc2N1 [Compound 5, N-(7-fluoro-2-oxo-1,2,3,4-tetrahydroquinolin-6-yl)-4-(3-fluorophenyl)thiazole-5-carboxamide] | < 100 nM | 100 to 250 nM | 1000 to 5000 nM | 1000 to 5000 nM | – | – | – | –
6 | O=C1CCc2cc(NC(=O)c3scnc3-c3cccc(F)c3)ccc2N1 [Compound 6, 4-(3-fluorophenyl)-N-(2-oxo-1,2,3,4-tetrahydroquinolin-6-yl)thiazole-5-carboxamide] | < 100 nM | 100 to 250 nM | 1000 to 5000 nM | 1000 to 5000 nM | – | – | – | –
7 | Cc1cc(NC(=O)c2ccncc2CC(F)(F)F)cc2c1NC(=O)CS2 [Compound 7] | 100 to 250 nM | 100 to 250 nM | 250 to 1000 nM | 250 to 1000 nM | – | – | – | –
8 | Cc1cc(OCCNC(=O)c2cccc(F)c2)cc2c1NC(=O)CC2 [Compound 8, 3-fluoro-N-(2-((8-methyl-2-oxo-1,2,3,4-tetrahydroquinolin-6-yl)oxy)ethyl)benzamide] | – | – | – | – | No activity | No activity | No activity | No activity
9 | Cc1cc(OCCN(C)C(=O)c2cccc(F)c2)cc2c1NC(=O)CC2 [Compound 9, 3-fluoro-N-methyl-N-(2-((8-methyl-2-oxo-1,2,3,4-tetrahydroquinolin-6-yl)oxy)ethyl)benzamide] | > 5000 nM | > 5000 nM | 1000 to 5000 nM | 1000 to 5000 nM | – | – | – | –
10 | Cc1cc(OCCN(C)Cc2cccc(F)c2)cc2c1NC(=O)CC2 [Compound 10] | 1000 to 5000 nM | 1000 to 5000 nM | 1000 to 5000 nM | 1000 to 5000 nM | – | – | – | –
11 | Cc1cccc(-c2cnccc2C(=O)Nc2cc(C)c3c(c2)CCC(=O)N3)c1 [Compound 11, N-(8-methyl-2-oxo-1,2,3,4-tetrahydroquinolin-6-yl)-3-(m-tolyl)isonicotinamide] | – | – | 1000 to 5000 nM | 1000 to 5000 nM | No activity | No activity | – | –
12 | Cc1cc(NC(=O)c2ccncc2-c2cccc(C#N)c2)cc2c1NC(=O)CC2 [Compound 12] | – | – | 1000 to 5000 nM | > 5000 nM | No activity | No activity | – | –
13 | Cc1ccc(-c2cnccc2C(=O)Nc2cc(C)c3c(c2)CCC(=O)N3)cc1 [Compound 13] | – | – | > 5000 nM | > 5000 nM | No activity | No activity | – | –
14 | Cc1cc(NC(=O)c2ccncc2-c2ccc(C#N)cc2)cc2c1NC(=O)CC2 [Compound 14] | – | – | > 5000 nM | > 5000 nM | No activity | No activity | – | –
15 | Cc1ccccc1-c1cnccc1C(=O)Nc1cc(C)c2c(c1)CCC(=O)N2 [Compound 15, N-(8-methyl-2-oxo-1,2,3,4-tetrahydroquinolin-6-yl)-3-(o-tolyl)isonicotinamide] | – | – | > 5000 nM | > 5000 nM | No activity | No activity | – | –
16 | Cc1cc(NC(=O)c2ccncc2-c2ccccc2C#N)cc2c1NC(=O)CC2 [Compound 16] | – | – | > 5000 nM | > 5000 nM | No activity | No activity | – | –
17 | Cc1cc(NC(=O)c2ccncc2-c2cccc(O)c2)cc2c1NC(=O)CC2 [Compound 18] | – | – | 1000 to 5000 nM | 1000 to 5000 nM | No activity | No activity | – | –
18 | Cc1cc(NC(=O)c2ccncc2-c2ccc(O)cc2)cc2c1NC(=O)CC2 [Compound 19] | – | – | 1000 to 5000 nM | 1000 to 5000 nM | No activity | No activity | – | –
19 | Cc1c(F)c(NC(=O)c2scnc2CC(F)(F)F)cc2c1NC(=O)CC2 [Compound 78] | – | – | 250 to 1000 nM | 1000 to 5000 nM | – | – | – | –
20 | CCc1ncsc1C(=O)Nc1cc2c(c(C)c1F)NC(=O)CC2 [Compound 79] | – | – | 250 to 1000 nM | 250 to 1000 nM | – | – | – | –
21 | Cc1c(Cl)c(NC(=O)c2scnc2CC(F)(F)F)cc2c1NC(=O)CC2 [Compound 80] | – | – | 100 to 250 nM | 250 to 1000 nM | – | – | – | –
22 | CCc1ncsc1C(=O)Nc1cc2c(c(C)c1Cl)NC(=O)CC2 [Compound 81] | – | – | 250 to 1000 nM | 250 to 1000 nM | – | – | – | –
23 | CCc1ncsc1C(=O)Nc1cc(Cl)c2c(c1)CCC(=O)N2 [Compound 83] | – | – | < 100 nM | < 100 nM | – | – | – | –

Reference: patent US20260151383A1, “HETEROCYCLIC COMPOUNDS AND USES THEREOF” (KayoThera Inc., priority 2022, published 2026)
